Tests used:
[1] = molecular target: T1, AP2-associated protein kinase 1 (Homo sapiens, UniProt Q2M2I8); experiment: Inhibition of bacterially expressed GST-Xa-tagged human AAK1 using 5-FAM-labelled Aha-KEEQSQITSQVTGQIGWR-NH2 peptide as substrate incubated for 3 hrs in presence of ATP by electrophoretic analysis
[2] = Metabolic stability in human liver microsomes assessed as parent compound remaining at 0.5 uM incubated for 10 mins in presence of NADPH by LC-MS/MS analysis; type: ADME, Microsome; conditions: read-out: Stability
[3] = Metabolic stability in mouse liver microsomes assessed as parent compound remaining at 0.5 uM incubated for 10 mins in presence of NADPH by LC-MS/MS analysis; type: ADME, Microsome; conditions: liver microsomes, read-out: Stability
[4] = molecular target: Dual specificity protein kinase CLK4 (Homo sapiens, UniProt Q9HAZ1); experiment: Inhibition of CLK4 (unknown origin)
[5] = Metabolic stability in rat liver microsomes assessed as parent compound remaining at 0.5 uM incubated for 10 mins in presence of NADPH by LC-MS/MS analysis; type: ADME, Microsome; conditions: read-out: Stability
[6] = molecular target: Dual specificity protein kinase CLK1 (Homo sapiens, UniProt P49759); experiment: Inhibition of CLK1 (unknown origin)
[7] = Cardiotoxicity in aortic ring (unknown origin) assessed as relaxation of phenylephrine induced aortic ring contraction at 10 uM incubated for 1 hr; type: toxicity, tissue-based, Aorta; parameters: scale not given: the % may be the effect or the level left; conditions: human
[8] = molecular target: Cytochrome P450 3A4 (Homo sapiens, UniProt P08684); experiment: Inhibition of CYP3A4 (unknown origin) incubated for 10 mins in presence of NADPH by LC-MS/MS analysis; type: ADME
Cytochrome P450 3A4, sequence (P08684 whole entry): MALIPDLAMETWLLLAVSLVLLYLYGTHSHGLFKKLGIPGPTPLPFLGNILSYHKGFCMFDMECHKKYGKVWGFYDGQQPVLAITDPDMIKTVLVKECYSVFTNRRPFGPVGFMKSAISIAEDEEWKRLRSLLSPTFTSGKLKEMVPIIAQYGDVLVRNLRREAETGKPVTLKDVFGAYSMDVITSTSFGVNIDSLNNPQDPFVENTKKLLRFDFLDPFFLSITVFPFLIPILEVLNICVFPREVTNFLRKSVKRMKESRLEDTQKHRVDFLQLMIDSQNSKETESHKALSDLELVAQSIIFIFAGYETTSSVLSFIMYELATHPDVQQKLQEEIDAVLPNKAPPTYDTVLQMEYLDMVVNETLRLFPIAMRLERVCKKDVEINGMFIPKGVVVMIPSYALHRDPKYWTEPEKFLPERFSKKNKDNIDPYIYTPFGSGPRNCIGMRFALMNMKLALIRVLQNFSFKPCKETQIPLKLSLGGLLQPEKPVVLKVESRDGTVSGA

[9] = molecular target: AP2-associated protein kinase 1 (Mus musculus, UniProt Q3UHJ0); experiment: Displacement of 3H-LP-927443 from AAK1 in C57BL6 mouse brain homogenate assessed as inhibition constant incubated for 1 hr by liquid scintillation counter analysis; type: tissue-based
AP2-associated protein kinase 1 (Mus musculus, UniProt Q3UHJ0), sequence (Q3UHJ0 whole entry): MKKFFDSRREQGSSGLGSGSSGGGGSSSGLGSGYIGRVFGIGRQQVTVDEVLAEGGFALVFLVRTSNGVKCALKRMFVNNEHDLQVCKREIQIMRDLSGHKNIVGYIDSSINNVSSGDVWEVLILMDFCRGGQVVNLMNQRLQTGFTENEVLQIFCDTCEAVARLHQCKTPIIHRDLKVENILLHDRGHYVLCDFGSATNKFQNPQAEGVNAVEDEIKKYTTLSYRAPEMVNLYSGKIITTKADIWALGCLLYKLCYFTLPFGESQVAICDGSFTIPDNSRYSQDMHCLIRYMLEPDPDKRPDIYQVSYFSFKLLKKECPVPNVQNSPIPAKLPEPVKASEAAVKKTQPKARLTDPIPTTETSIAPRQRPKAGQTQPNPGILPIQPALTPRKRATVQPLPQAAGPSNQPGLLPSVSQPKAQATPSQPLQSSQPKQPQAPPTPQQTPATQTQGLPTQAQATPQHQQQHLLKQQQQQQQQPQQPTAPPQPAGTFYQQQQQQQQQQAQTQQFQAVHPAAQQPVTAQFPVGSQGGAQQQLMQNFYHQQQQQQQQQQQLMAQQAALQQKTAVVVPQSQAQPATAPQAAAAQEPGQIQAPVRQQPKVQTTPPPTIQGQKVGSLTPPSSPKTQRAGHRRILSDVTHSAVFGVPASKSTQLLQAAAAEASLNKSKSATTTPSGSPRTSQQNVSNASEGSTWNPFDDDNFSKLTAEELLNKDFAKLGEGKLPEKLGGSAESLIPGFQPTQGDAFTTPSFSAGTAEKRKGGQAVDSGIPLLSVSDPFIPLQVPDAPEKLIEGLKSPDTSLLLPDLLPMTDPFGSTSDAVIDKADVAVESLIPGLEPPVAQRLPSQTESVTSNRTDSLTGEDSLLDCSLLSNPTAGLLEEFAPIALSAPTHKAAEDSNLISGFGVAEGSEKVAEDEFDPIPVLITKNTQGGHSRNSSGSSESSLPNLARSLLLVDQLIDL

[10] = molecular target: Rho-associated protein kinase 2 (Homo sapiens, UniProt O75116); experiment: Inhibition of ROCK2 (unknown origin)
Rho-associated protein kinase 2, sequence (O75116 whole entry): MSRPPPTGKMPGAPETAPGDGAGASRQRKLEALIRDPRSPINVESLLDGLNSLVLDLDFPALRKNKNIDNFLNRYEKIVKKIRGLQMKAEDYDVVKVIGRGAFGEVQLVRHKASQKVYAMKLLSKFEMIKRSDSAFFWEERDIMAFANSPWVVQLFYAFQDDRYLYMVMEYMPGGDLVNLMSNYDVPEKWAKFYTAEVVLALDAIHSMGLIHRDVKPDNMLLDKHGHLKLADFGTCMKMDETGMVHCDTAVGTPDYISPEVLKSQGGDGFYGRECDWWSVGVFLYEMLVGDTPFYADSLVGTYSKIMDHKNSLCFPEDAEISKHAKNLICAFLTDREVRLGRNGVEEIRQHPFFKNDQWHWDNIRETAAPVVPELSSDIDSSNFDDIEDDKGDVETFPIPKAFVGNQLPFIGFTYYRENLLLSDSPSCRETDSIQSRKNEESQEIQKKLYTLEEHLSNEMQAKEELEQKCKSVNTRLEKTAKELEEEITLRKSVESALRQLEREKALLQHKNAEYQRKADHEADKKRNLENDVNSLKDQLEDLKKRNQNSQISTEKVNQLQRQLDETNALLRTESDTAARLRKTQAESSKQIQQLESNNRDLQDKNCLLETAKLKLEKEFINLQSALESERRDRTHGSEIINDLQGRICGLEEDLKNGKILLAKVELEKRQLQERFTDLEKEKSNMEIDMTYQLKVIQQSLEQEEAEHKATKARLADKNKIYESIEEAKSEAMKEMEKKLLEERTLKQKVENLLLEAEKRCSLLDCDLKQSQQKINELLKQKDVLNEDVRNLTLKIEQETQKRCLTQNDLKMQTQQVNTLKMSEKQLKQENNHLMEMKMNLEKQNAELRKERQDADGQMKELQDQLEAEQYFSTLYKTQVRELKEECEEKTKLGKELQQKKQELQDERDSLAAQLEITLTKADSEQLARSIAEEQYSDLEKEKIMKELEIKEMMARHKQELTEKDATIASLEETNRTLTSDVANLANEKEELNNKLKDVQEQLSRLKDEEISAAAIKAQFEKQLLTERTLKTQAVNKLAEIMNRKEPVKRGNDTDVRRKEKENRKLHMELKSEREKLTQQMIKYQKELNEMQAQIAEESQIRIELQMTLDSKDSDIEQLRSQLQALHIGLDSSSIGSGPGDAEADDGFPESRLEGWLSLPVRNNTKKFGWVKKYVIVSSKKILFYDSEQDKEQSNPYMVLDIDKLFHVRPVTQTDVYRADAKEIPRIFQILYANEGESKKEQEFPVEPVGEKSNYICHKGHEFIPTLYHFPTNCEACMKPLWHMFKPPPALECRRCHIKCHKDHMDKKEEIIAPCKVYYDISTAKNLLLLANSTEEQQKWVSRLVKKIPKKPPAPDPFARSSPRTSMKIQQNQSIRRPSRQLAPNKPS

[11] = molecular target: MAP kinase-interacting serine/threonine-protein kinase 2 (Homo sapiens, UniProt Q9HBH9); experiment: Inhibition of MNK2 (unknown origin)
MAP kinase-interacting serine/threonine-protein kinase 2, sequence (Q9HBH9 whole entry): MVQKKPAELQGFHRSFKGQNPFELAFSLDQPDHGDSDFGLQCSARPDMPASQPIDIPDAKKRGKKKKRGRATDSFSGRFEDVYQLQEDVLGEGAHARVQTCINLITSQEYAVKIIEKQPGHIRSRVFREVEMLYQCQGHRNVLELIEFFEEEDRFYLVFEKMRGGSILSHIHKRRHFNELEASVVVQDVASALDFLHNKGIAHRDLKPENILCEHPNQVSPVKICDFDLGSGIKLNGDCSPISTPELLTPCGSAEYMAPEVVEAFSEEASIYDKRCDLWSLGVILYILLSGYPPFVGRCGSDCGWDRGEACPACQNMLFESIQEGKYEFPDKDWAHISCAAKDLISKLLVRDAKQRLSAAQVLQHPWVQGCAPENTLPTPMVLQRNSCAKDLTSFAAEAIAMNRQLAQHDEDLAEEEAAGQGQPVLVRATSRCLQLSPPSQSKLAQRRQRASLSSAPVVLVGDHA

[12] = Brain concentration in CCI induced thermal hyperalgesia in Sprague-Dawley rat at 1 mg/kg, po measured at 5.5 hrs post dose; type: ADME, organism-based; conditions: read-out: Ct
[13] = Brain concentration in STZ-induced diabetic peripheral neuropathic mechanical allodynia in overnight fasted Sprague-Dawley rat at 1 mg/kg, po measured at 5.5 hrs post dose; type: ADME, organism-based; conditions: read-out: Ct
[14] = Ratio of drug concentration in brain to plasma in CCI induced thermal hyperalgesia in Sprague-Dawley rat at 1 mg/kg, po measured at 5.5 hrs post dose; type: ADME, organism-based
[15] = Drug concentration in CCI induced thermal hyperalgesia in Sprague-Dawley rat spinal cord at 1 mg/kg, po measured after 5.5 hrs; type: ADME, organism-based; conditions: read-out: Ct
[16] = Drug concentration in STZ-induced diabetic peripheral neuropathic mechanical allodynia in overnight fasted Sprague-Dawley rat spinal cord at 1 mg/kg, po measured after 5.5 hrs; type: ADME, organism-based; conditions: read-out: Ct
[17] = Ratio of drug concentration in brain to plasma in Sprague-Dawley rat at 3 mg/kg, po measured at 2 hrs post dose; type: ADME, organism-based
[18] = test system: Rattus norvegicus; experiment: Analgesic activity in CCI induced thermal hyperalgesia in Sprague-Dawley rat assessed as reduction in thermal hyperalgesia by measuring paw withdrawal latency at 1 mg/kg, po measured after 5 hrs by Hargreaves test relative to control; type: functional; parameters: scale not given: the % may be the effect or the level left
[19] = Plasma concentration in CCI induced thermal hyperalgesia in Sprague-Dawley rat at 1 mg/kg, po measured at 5.5 hrs post dose; type: ADME, organism-based
[20] = Ratio of drug concentration in spinal cord to plasma in STZ-induced diabetic peripheral neuropathic mechanical allodynia in overnight fasted Sprague-Dawley rat at 1 mg/kg, po measured at 5.5 hrs post dose; type: ADME, organism-based
[21] = Plasma concentration in STZ-induced diabetic peripheral neuropathic mechanical allodynia in overnight fasted Sprague-Dawley rat at 1 mg/kg, po measured at 5.5 hrs post dose; type: ADME, organism-based
[22] = test system: Rattus norvegicus; experiment: Analgesic activity in STZ-induced diabetic peripheral neuropathic mechanical allodynia in overnight fasted Sprague-Dawley rat assessed as reduction in pain response by measuring paw withdrawal latency at 1 mg/kg, po measured after 5 hrs by Hargreaves test relative to control; type: functional; parameters: scale not given: the % may be the effect or the level left
[23] = Ratio of drug concentration in brain to plasma in STZ-induced diabetic peripheral neuropathic mechanical allodynia in overnight fasted Sprague-Dawley rat at 1 mg/kg, po measured at 5.5 hrs post dose; type: ADME, organism-based
[24] = Ratio of drug concentration in spinal cord to plasma in CCI induced thermal hyperalgesia in Sprague-Dawley rat at 1 mg/kg, po measured at 5.5 hrs post dose; type: ADME, organism-based
[25] = molecular target: T1, AP2-associated protein kinase 1; experiment: Inhibition of full length human AAK1 expressed in HEK293F cells assessed as suppression of AP2 phosphorylation measured after 3 hrs by Western blot analysis based cellular assay; type: cell-based
[26] = molecular target: Death-associated protein kinase 3 (Homo sapiens, UniProt O43293); experiment: Inhibition of DAPK3 (unknown origin)
Death-associated protein kinase 3, sequence (O43293 whole entry): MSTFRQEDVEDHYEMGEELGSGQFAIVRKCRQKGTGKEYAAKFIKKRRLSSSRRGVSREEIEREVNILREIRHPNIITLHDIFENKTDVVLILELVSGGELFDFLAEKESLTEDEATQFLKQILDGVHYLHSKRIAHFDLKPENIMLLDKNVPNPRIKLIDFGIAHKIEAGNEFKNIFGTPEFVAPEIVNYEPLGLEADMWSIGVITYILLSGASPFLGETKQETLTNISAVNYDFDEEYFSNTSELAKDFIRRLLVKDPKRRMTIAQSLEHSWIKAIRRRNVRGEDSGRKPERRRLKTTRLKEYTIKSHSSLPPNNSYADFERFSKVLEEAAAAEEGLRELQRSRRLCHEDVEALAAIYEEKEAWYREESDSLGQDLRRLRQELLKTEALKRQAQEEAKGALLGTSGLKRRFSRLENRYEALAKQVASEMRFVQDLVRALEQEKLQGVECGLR

[27] = molecular target: Myotonin-protein kinase (Homo sapiens, UniProt Q09013); experiment: Inhibition of DMPK1 (unknown origin)
[28] = molecular target: BMP-2-inducible protein kinase (Homo sapiens, UniProt Q9NSY1); experiment: Inhibition of BIKE (unknown origin)
[29] = molecular target: T2, Cyclin-G-associated kinase (Homo sapiens, UniProt O14976); experiment: Inhibition of GAK (unknown origin)
T2 sequence (O14976 whole entry): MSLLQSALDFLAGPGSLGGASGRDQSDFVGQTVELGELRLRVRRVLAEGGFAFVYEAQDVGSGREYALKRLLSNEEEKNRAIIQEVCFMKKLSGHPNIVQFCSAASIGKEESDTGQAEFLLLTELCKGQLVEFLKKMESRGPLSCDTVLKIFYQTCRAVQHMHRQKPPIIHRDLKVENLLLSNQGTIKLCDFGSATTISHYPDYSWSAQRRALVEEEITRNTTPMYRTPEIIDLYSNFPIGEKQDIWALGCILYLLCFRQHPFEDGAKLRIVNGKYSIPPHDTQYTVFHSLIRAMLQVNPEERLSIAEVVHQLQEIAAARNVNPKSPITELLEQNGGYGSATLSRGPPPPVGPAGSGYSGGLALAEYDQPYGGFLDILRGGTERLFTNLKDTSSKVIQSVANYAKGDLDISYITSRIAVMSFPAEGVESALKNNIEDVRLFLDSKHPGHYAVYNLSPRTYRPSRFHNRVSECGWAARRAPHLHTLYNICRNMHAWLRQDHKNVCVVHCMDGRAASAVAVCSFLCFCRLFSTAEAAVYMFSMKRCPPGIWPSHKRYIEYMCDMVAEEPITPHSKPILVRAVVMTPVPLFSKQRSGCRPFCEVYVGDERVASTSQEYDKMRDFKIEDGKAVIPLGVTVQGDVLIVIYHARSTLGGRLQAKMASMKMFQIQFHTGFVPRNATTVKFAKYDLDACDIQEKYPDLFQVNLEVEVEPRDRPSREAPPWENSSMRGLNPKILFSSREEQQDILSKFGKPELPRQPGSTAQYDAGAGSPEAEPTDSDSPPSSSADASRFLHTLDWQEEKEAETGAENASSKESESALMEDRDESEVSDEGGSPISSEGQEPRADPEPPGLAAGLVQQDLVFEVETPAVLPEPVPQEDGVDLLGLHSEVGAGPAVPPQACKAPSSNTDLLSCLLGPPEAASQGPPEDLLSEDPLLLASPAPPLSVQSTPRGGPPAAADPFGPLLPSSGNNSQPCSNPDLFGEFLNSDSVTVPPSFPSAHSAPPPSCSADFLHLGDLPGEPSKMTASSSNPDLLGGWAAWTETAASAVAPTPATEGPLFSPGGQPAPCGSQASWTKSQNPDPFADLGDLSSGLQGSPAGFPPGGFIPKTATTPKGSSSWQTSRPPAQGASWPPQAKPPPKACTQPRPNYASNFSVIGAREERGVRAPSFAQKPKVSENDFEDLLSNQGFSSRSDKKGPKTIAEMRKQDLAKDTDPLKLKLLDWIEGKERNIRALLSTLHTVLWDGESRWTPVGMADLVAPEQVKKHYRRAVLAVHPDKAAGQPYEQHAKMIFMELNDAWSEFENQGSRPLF

[30] = Inhibition of MEK (unknown origin); parameters: species or system Homo sapiens
[31] = molecular target: T3, Homeodomain-interacting protein kinase 4 (Homo sapiens, UniProt Q8NE63); experiment: Inhibition of HIPK4 (unknown origin)
T3 sequence (Q8NE63 whole entry): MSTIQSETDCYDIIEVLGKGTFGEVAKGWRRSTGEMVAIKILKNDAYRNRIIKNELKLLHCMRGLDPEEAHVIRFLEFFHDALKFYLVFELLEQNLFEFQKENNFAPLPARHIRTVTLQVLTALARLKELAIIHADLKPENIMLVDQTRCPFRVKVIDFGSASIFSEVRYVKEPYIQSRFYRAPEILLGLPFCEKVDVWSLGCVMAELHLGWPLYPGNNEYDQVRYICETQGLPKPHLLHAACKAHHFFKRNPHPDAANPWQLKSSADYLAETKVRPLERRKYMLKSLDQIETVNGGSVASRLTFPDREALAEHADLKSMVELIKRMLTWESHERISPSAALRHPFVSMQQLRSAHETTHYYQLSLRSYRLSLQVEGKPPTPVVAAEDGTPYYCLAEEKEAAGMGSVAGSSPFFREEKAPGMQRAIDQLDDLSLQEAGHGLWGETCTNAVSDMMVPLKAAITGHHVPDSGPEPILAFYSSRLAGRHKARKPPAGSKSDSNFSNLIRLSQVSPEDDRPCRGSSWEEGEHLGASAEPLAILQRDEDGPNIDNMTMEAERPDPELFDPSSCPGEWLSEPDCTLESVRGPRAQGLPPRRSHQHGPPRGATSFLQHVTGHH

[32] = molecular target: Death-associated protein kinase 1 (Homo sapiens, UniProt P53355); experiment: Inhibition of DAPK1 (unknown origin)
[33] = molecular target: Tyrosine-protein kinase receptor TYRO3 (Homo sapiens, UniProt Q06418); experiment: Inhibition of TYRO3 (unknown origin)
[34] = Inhibition of CK2A2 (unknown origin); parameters: species or system Homo sapiens
[35] = molecular target: STE20/SPS1-related proline-alanine-rich protein kinase (Homo sapiens, UniProt Q9UEW8); experiment: Inhibition of STLK3 (unknown origin)
[36] = molecular target: Citron Rho-interacting kinase (Homo sapiens, UniProt O14578); experiment: Inhibition of CRIK (unknown origin)
[37] = molecular target: Tyrosine-protein kinase JAK2 (Homo sapiens, UniProt O60674); experiment: Inhibition of JAK2 (unknown origin)
[38] = molecular target: Serine/threonine-protein kinase N2 (Homo sapiens, UniProt Q16513); experiment: Inhibition of PKN2 (unknown origin)
[39] = molecular target: Myosin light chain kinase 2, skeletal/cardiac muscle (Homo sapiens, UniProt Q9H1R3); experiment: Inhibition of MYLK2 (unknown origin)
[40] = molecular target: Serine/threonine-protein kinase tousled-like 1 (Homo sapiens, UniProt Q9UKI8); experiment: Inhibition of TLK1 (unknown origin)
[41] = molecular target: Serine/threonine-protein kinase tousled-like 2 (Homo sapiens, UniProt Q86UE8); experiment: Inhibition of TLK2 (unknown origin)
[42] = molecular target: MAP kinase-interacting serine/threonine-protein kinase 1 (Homo sapiens, UniProt Q9BUB5); experiment: Inhibition of MNK1 (unknown origin)
[43] = molecular target: Dual specificity mitogen-activated protein kinase kinase 1 (Homo sapiens, UniProt Q02750); experiment: Inhibition of MEK1/MAP2K1 (unknown origin)

T1 sequence (Q2M2I8 whole entry): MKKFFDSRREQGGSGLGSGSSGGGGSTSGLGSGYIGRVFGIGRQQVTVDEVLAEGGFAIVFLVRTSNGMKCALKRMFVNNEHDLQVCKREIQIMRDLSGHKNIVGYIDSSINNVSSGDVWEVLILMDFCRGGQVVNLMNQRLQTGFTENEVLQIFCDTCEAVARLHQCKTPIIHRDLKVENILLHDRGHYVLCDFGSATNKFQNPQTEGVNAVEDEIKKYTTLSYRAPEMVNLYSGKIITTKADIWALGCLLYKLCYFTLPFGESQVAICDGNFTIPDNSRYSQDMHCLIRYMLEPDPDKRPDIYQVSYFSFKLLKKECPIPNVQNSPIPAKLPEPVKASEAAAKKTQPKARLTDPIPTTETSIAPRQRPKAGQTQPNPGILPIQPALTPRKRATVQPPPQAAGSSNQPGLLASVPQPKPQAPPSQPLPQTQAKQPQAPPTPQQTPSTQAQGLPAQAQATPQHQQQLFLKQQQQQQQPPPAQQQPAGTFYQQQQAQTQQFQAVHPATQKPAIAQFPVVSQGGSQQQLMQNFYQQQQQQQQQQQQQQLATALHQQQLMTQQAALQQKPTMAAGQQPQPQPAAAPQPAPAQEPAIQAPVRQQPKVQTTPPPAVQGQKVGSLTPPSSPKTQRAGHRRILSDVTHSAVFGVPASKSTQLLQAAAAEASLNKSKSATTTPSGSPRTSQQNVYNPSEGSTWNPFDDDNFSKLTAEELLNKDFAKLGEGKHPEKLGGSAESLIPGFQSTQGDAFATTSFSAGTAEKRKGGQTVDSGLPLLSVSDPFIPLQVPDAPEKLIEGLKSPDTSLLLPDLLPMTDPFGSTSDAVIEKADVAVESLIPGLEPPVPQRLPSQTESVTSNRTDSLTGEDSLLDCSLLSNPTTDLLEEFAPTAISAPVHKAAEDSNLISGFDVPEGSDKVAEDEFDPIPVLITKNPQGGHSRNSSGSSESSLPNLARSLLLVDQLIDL

SMILES | IC50 [1] [nM] | remaining at 10 min, 0.5 µM [2] [%] | remaining at 10 min, 0.5 µM [3] [%] | remaining at 10 min, 0.5 µM [5] [%] | Activity [7] [%] | IC50 [8] [nM] | Ki [9] [nM] | IC50 [10] [nM] | IC50 [11] [nM] | IC50 [25] [nM] | IC50 [26] [nM] | IC50 [28] [nM] | IC50 [31] [nM] | IC50 [32] [nM] | further results
COC(=O)Nc1cc(-c2cnc(OC[C@@](C)(N)CC(C)C)c(C#N)c2)ccn1 | 1 | 95 | 86 | 80 | 95 | 2200 | 0.15 | 1100 | 900 | – | – | – | – | – | IC50 [4]: 590 nM; IC50 [6]: 1700 nM
CC(=O)Nc1cc(-c2ccc(OC[C@@H](N)CC(C)C)c(F)c2)ccn1 | 2.6 | 90 | 79 | 80 | – | 8900 | 0.52 | – | – | 1.6 | – | – | – | – | concentration at 5.5 h [12]: 320 nM; concentration at 5.5 h [13]: 190 nM; Kp at 5.5 h [14]: 1.2; concentration at 5.5 h [15]: 270 nM; concentration at 5.5 h [16]: 150 nM; Kp at 2 h [17]: 1.5; Activity [18]: 56%; concentration at 5.5 h [19]: 270 nM; Kp at 5.5 h [20]: 0.8; concentration at 5.5 h [21]: 190 nM; Activity [22]: 65%; Kp at 5.5 h [23]: 1; Kp at 5.5 h [24]: 1
COC(=O)Nc1cc(-c2ccc(OC[C@@](C)(N)CC(C)C)c(C(F)F)n2)ccn1 | 0.8 | 77 | 84 | 91 | 89 | > 20000 | 0.07 | 140 | 120 | – | 1100 | 20 | 650 | 560 | IC50 [27]: 1500 nM; IC50 [29]: 160 nM; IC50 [30]: 610 nM; IC50 [33]: 1300 nM; IC50 [34]: 680 nM
COC(=O)Nc1cc(-c2ccc(OC[C@@](C)(N)CC(C)C)c(Cl)n2)ccn1 | 0.5 | 93 | 72 | 99 | 74 | > 20000 | 0.17 | – | 1200 | 1.2 | 1100 | 30 | 1100 | 810 | IC50 [35]: 1400 nM; IC50 [36]: 90 nM; IC50 [37]: 1600 nM; IC50 [38]: 140 nM; IC50 [39]: 650 nM; IC50 [40]: 1200 nM; IC50 [41]: 1400 nM; IC50 [42]: 120 nM; IC50 [43]: 1200 nM

Source: ChEMBL document CHEMBL5154787 (J Med Chem, 2022)
